≈ marks a conversion by molar mass, not a printed value. Values belong to the compound of their own block, whether it stands above or below them.
Experiments:
[1] = Half life in dog at 1 mg/kg, iv; format: ADME, organism-based, Canis lupus familiaris; details: in vivo
[2] = AUC (0 to 24 hrs) in mouse at 3 mg/kg, iv; format: ADME, organism-based; set-up: time < 24 hr, dose 3 mg/kg, route intravenous; details: in vivo
[3] = AUC (0 to 48 hrs) in rat at 3 mg/kg, po; format: ADME, organism-based; set-up: dose 3 mg/kg, time < 48 hr, route oral; details: in vivo
Cytochrome P450 3A4 = Cytochrome P450 3A4 (Homo sapiens, UniProt P08684); experiment: Inhibition of CYP3A4 in human liver microsomes; format: ADME
[4] = Clearance in dog at 1 mg/kg, iv; format: ADME, organism-based, Canis lupus familiaris; details: in vivo
[5] = Volume of distribution in mouse at 3 mg/kg, iv; format: ADME, organism-based; details: in vivo
[6] = Clearance in rat at 1 mg/kg, iv; format: ADME, organism-based; details: in vivo
Aurora kinase B = Aurora kinase B (Homo sapiens, UniProt Q96GD4); experiment: Binding affinity to Aurora B (unknown origin) after 45 mins by fluorescence-based thermal stability shift assay
Aurora kinase A = biological target: T1, Aurora kinase A (Homo sapiens, UniProt O14965); experiment: Binding affinity to Aurora A (unknown origin) after 45 mins by fluorescence-based thermal stability shift assay
T1 sequence (O14965 whole entry): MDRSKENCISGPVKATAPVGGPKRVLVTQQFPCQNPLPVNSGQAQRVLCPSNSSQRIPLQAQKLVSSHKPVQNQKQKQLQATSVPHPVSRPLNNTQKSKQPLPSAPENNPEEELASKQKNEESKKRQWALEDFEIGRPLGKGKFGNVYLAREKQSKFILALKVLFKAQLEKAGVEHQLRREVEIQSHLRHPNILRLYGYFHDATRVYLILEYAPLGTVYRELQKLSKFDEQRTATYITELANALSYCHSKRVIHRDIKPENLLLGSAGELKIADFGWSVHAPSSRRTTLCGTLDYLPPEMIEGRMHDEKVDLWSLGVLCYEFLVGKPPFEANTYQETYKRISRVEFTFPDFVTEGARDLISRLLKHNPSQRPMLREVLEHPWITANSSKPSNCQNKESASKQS

[7] = AUC (0 to 48 hrs) in rat at 1 mg/kg, iv; format: ADME, organism-based; set-up: time < 48 hr, dose 1 mg/kg, route intravenous; details: in vivo
[8] = Oral bioavailability in monkey at 3 mg/kg; format: ADME, organism-based, Macaca mulatta; details: rhesus monkey, in vivo
[9] = AUC (0 to 24 hrs) in mouse at 50 mg/kg, po; format: ADME, organism-based; set-up: time < 24 hr, dose 50 mg/kg, route oral; details: in vivo
[10] = Volume of distribution in monkey at 1 mg/kg, iv; format: ADME, organism-based, Macaca mulatta; details: rhesus monkey, in vivo
[11] = AUC (0 to 48 hrs) in monkey at 1 mg/kg, iv; format: ADME, organism-based, Macaca mulatta; set-up: time < 48 hr, dose 1 mg/kg, route intravenous; details: rhesus monkey, in vivo
[12] = Kinetic solubility of the compound in sodium phosphate buffer/2% DMSO at pH 7.4 by static light scattering method; format: physicochemical; details: read-out: Kinetic_solubility
[13] = Volume of distribution in rat at 1 mg/kg, iv; format: ADME, organism-based; details: in vivo
[14] = Oral bioavailability in mouse at 50 mg/kg; format: ADME, organism-based; details: in vivo
[15] = biological target: Serine/threonine-protein kinase Nek2 (Homo sapiens, UniProt P51955); experiment: Inhibition of NEK2 (unknown origin)
Cytochrome P450 2D6 = Cytochrome P450 2D6 (Homo sapiens, UniProt P10635); experiment: Inhibition of CYP2D6 in human liver microsomes; format: ADME
A2780 [16] = experiment: Antitumor activity against human A2780 cells xenografted in nu/nu mouse assessed as tumor growth inhibition at 300 mg/kg, po bid; format: functional; details: read-out: TGI
[17] = Half life in rat at 1 mg/kg, iv; format: ADME, organism-based; details: in vivo
[18] = biological target: Ribosomal protein S6 kinase alpha-3 (Homo sapiens, UniProt P51812); experiment: Inhibition of RSK2 (unknown origin)
Cytochrome P450 2C19 = Cytochrome P450 2C19 (Homo sapiens, UniProt P33261); experiment: Inhibition of CYP2C19 in human liver microsomes; format: ADME
[19] = AUC (0 to 6 hrs) in rat at 10 mg/kg, po; format: ADME, organism-based; set-up: time < 6 hr, dose 10 mg/kg, route oral; details: in vivo
[20] = Protein binding in human plasma; format: ADME, cell-free; details: read-out: PPB (converted)
[21] = biological target: Testis-specific serine/threonine-protein kinase 2 (Homo sapiens, UniProt Q96PF2); experiment: Inhibition of TSSK2 (unknown origin)
[22] = Clearance in monkey at 1 mg/kg, iv; format: ADME, organism-based, Macaca mulatta; details: rhesus monkey, in vivo
[23] = Oral bioavailability in rat at 3 mg/kg; format: ADME, organism-based; details: in vivo
[24] = biological target: Ribosomal protein S6 kinase; experiment: Inhibition of S6K (unknown origin); format: protein assay, Homo sapiens
HCT-116 = experiment: Induction of endoreduplication in human HCT116 cells assessed as accumulation of >=4 N DNA preincubated for 24 hrs followed by compound washout by FACS analysis; format: functional
Mus musculus [25] = experiment: Toxicity in nu/nu mouse xenografted with human A2780 cells assessed as death at 10 to 25 mg/kg, po after 3 days; format: organism-based; details: in vivo, 72 h
[26] = biological target: Interleukin-1 receptor-associated kinase 4 (Homo sapiens, UniProt Q9NWZ3); experiment: Inhibition of IRAK4 (unknown origin)
A2780 [27] = experiment: Antitumor activity against human A2780 cells xenografted in nu/nu mouse assessed as tumor growth inhibition at 10 mg/kg, po bid for 3 days; format: functional; details: 72 h, read-out: TGI
[28] = Half life in rat at 10 mg/kg, iv; format: ADME, organism-based; details: in vivo
[29] = Intrinsic clearance in cryopreserved rat hepatocytes assessed per million cells; format: ADME, cell-based, Hepatocyte; details: read-out: CLH
[30] = AUC (0 to 48 hrs) in monkey at 10 mg/kg, po; format: ADME, organism-based, Macaca mulatta; set-up: time < 48 hr, dose 10 mg/kg, route oral; details: rhesus monkey, in vivo
[31] = Volume of distribution in rat at 10 mg/kg, iv; format: ADME, organism-based; details: in vivo
[32] = Intrinsic clearance in cryopreserved monkey hepatocytes assessed per million cells; format: ADME, cell-based, Macaca mulatta, Hepatocyte; details: rhesus monkey, read-out: CLH
[33] = Clearance in rat at 10 mg/kg, iv; format: ADME, organism-based; details: in vivo
A2780 [34] = experiment: Antitumor activity against human A2780 cells xenografted in nu/nu mouse assessed as tumor growth inhibition at 25 mg/kg, po qd for 3 days; format: functional; details: 72 h, read-out: TGI
A2780 [35] = experiment: Antitumor activity against human A2780 cells xenografted in nu/nu mouse assessed as tumor growth inhibition at 10 mg/kg, ip bid for 3 days; format: functional; details: 72 h, read-out: TGI
Mus musculus [36] = experiment: Toxicity in nu/nu mouse xenografted with human A2780 cells assessed as body weight loss at 25 mg/kg, po qd after 3 days; format: organism-based; details: in vivo, 72 h
[37] = Intrinsic clearance in cryopreserved human hepatocytes assessed per million cells; format: ADME, cell-based, Hepatocyte; details: read-out: CLH
[38] = Equilibrium solubility of the compound in citrate buffer at pH 5.3 by HPLC method; format: physicochemical
Rattus norvegicus = experiment: AUC (0 to 24 hrs) in rat at 30 mg/kg, po; format: ADME, organism-based; set-up: time < 24 hr, dose 30 mg/kg, route oral; details: in vivo, 24 h
Mus musculus [39] = experiment: Toxicity in nu/nu mouse xenografted with human A2780 cells assessed as body weight loss at 10 mg/kg, po bid after 3 days; format: organism-based; details: in vivo, 72 h
[40] = AUC (0 to 24 hrs) in rat at 10 mg/kg, iv; format: ADME, organism-based; set-up: time < 24 hr, dose 10 mg/kg, route intravenous; details: in vivo
[41] = Intrinsic clearance in cryopreserved dog hepatocytes assessed per million cells; format: ADME, cell-based, Canis lupus familiaris, Hepatocyte; details: read-out: CLH
[42] = Oral bioavailability in monkey at 10 mg/kg; format: ADME, organism-based, Macaca mulatta; details: rhesus monkey, in vivo
[43] = Oral bioavailability in rat at 30 mg/kg; format: ADME, organism-based; details: in vivo

Chain of Ribosomal protein S6 kinase alpha-3 (P51812 whole entry): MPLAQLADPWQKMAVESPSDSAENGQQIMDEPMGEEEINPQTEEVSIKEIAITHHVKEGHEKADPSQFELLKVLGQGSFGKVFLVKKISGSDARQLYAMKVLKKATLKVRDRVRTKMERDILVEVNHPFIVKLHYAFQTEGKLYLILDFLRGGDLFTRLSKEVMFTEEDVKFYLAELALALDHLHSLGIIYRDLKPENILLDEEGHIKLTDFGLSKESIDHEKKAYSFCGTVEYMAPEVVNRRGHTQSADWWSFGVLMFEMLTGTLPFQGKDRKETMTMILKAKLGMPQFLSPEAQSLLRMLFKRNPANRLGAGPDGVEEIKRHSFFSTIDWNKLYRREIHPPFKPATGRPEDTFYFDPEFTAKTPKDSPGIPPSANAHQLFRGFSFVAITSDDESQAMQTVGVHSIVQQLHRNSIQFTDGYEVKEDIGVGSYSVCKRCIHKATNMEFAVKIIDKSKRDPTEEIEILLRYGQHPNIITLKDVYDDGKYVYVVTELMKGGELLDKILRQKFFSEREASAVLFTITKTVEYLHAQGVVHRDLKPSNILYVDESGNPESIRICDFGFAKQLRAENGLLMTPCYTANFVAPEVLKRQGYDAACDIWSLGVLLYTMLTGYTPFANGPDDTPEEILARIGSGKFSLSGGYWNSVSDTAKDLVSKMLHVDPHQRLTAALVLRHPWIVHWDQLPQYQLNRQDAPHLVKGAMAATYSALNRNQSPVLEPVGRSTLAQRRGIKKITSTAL
Chain of Cytochrome P450 3A4 (P08684 whole entry): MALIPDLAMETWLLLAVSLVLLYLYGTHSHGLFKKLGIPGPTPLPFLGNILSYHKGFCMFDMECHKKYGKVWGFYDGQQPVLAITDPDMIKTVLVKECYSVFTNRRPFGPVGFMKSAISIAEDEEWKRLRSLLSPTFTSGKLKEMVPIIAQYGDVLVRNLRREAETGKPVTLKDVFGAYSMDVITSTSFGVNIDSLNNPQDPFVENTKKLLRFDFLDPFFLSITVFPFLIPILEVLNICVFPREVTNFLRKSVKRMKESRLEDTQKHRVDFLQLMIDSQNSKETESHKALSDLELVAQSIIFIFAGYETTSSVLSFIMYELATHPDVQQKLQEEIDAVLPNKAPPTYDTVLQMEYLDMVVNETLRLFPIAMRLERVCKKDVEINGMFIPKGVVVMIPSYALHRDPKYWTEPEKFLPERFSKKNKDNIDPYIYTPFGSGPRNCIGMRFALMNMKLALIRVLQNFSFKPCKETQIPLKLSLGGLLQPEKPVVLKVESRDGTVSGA
Chain of Serine/threonine-protein kinase Nek2 (P51955 whole entry): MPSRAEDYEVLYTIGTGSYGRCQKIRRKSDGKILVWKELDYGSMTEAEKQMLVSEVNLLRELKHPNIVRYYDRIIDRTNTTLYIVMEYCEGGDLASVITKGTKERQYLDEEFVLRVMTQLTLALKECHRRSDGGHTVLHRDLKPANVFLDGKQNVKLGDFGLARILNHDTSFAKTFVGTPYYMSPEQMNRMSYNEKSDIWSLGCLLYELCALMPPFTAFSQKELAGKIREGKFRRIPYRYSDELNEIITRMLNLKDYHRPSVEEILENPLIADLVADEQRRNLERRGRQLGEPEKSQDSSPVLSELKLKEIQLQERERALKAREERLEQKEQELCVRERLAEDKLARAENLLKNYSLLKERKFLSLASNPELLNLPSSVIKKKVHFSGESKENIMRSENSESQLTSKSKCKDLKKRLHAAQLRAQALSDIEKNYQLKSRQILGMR
Chain of Cytochrome P450 2D6 (P10635 whole entry): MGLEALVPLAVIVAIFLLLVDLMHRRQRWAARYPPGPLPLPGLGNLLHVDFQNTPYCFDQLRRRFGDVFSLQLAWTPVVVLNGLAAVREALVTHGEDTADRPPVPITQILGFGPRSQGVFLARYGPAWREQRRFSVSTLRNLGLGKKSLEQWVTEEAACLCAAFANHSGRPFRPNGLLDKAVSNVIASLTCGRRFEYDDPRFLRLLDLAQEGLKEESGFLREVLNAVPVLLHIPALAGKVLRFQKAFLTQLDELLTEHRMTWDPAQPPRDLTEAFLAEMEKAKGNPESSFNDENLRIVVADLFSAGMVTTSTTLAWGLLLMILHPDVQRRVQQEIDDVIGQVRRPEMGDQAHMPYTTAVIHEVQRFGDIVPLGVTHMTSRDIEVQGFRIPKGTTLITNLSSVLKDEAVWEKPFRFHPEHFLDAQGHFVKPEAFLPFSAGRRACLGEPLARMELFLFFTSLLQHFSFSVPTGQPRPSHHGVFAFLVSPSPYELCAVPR
Chain of Aurora kinase B (Q96GD4 whole entry): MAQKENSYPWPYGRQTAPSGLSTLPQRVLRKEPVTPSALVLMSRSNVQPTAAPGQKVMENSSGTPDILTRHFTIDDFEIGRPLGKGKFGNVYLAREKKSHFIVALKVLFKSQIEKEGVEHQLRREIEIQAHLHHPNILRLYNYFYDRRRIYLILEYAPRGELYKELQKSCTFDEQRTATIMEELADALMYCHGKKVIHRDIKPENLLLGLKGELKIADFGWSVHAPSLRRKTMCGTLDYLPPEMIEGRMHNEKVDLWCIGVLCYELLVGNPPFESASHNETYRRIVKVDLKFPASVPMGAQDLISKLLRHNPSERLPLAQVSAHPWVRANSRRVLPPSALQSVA
Chain of Testis-specific serine/threonine-protein kinase 2 (Q96PF2 whole entry): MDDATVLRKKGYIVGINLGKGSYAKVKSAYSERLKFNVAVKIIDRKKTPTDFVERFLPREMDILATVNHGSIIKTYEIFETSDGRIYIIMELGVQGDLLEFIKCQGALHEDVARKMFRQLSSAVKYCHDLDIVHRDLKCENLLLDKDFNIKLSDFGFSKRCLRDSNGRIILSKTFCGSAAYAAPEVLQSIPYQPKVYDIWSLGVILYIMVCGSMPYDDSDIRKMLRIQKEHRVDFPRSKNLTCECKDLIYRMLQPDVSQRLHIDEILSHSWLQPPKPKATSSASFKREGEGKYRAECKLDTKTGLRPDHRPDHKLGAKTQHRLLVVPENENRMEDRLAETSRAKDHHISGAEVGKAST
Chain of Interleukin-1 receptor-associated kinase 4 (Q9NWZ3 whole entry): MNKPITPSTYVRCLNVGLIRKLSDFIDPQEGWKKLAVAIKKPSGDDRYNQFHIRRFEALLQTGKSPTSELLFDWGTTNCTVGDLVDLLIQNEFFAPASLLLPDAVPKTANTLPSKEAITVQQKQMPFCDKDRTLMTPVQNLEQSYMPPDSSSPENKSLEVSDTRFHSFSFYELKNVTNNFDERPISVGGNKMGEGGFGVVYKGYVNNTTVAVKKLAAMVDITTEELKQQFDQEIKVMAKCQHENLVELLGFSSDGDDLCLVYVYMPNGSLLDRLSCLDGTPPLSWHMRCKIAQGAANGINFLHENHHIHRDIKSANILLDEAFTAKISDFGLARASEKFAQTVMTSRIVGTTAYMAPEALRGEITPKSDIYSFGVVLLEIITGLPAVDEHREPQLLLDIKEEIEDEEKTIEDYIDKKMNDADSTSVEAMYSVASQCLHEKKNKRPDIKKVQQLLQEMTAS
Chain of Cytochrome P450 2C19 (P33261 whole entry): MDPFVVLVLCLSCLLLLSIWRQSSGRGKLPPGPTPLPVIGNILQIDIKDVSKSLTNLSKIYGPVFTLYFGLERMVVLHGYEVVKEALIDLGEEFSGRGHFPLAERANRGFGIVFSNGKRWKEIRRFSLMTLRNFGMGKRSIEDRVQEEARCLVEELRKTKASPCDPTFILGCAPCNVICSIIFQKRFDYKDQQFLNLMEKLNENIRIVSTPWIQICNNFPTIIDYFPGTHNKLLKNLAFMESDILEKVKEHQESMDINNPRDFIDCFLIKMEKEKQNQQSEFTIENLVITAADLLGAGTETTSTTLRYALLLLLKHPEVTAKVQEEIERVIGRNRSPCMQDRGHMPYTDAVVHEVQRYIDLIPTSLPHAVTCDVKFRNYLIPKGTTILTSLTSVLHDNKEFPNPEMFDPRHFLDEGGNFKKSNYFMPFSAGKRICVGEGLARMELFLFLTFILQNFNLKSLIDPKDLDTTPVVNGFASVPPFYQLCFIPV

- half-life [1]: 0.8 h
- AUC(0-t) at 24 h [2]: 1.1 µM·h
- AUC(0-t) at 48 h [3]: 0.8 µM·h
- IC50 (Cytochrome P450 3A4): > 20000 nM
- clearance [4]: 5 mL/min/kg
- Vd [5]: 1.6 L/kg
- clearance [6]: 15 mL/min/kg
- Kd (Aurora kinase B): 0.1 nM
- Kd (Aurora kinase A): 0.01 nM
- AUC(0-t) at 48 h [7]: 2.8 µM·h
- bioavailability [8]: 0%
- AUC(0-t) at 24 h [9]: 14.1 µM·h
- Vd [10]: 1 L/kg
- AUC(0-t) at 48 h [11]: 1.7 µM·h
- solubility kinetic [12]: 20 µM (≈ 7.77 µg/mL)
- Vd [13]: 0.7 L/kg
- bioavailability [14]: 77%
- IC50 [15]: > 500 nM
- IC50 (Cytochrome P450 2D6): > 20000 nM
- half-life [17]: 0.7 h
- IC50 [18]: 260 nM
- IC50 (Cytochrome P450 2C19): > 20000 nM
- AUC(0-t) at 6 h [19]: 17.7 µM·h
- fraction unbound [20]: 0.009
- IC50 [21]: > 500 nM
- clearance [22]: 28 mL/min/kg
- bioavailability [23]: 10%
Compound: Cc1cn2c(-c3cn[nH]c3)cnc2c(Nc2cc(Cc3ccccn3)ns2)n1
- inhibition in vivo at 300 mg/kg (A2780 [16]): 61%

- IC50 [15]: > 500 nM
- IC50 [18]: 180 nM
- IC50 [21]: > 500 nM
Compound: CCN(CCO)Cc1cc(Nc2nc(C)cn3c(-c4cn[nH]c4)cnc23)sn1

Compound: Cc1cn2c(-c3cn[nH]c3)cnc2c(Nc2cc(C(NC(C)(C)C)c3ccccn3)ns2)n1 (single isomer, unassigned; (+))
- half-life [1]: 4.6 h
- IC50 [24]: > 1000 nM
- Cmin (HCT-116): 6 nM
- AUC(0-t) at 24 h [2]: 2.2 µM·h
- IC50 (Cytochrome P450 3A4): > 20000 nM
- Activity (Mus musculus [25]): Toxic
- clearance [4]: 9.4 mL/min/kg
- IC50 [26]: 380 nM
- Vd [5]: 5.3 L/kg
- inhibition in vivo at 10 mg/kg (A2780 [27]): 79%
- half-life [28]: 2.6 h
- hepatocyte CLint [29]: 11.5 µL/min/1e6 cells
- Kd (Aurora kinase B): 0.01 nM
- Kd (Aurora kinase A): 0.01 nM
- AUC(0-t) at 48 h [30]: 4 µM·h
- AUC(0-t) at 24 h [9]: 23.5 µM·h
- Vd [31]: 2.5 L/kg
- Vd [10]: 1.3 L/kg
- AUC(0-t) at 48 h [11]: 5 µM·h
- hepatocyte CLint [32]: 27.6 µL/min/1e6 cells
- clearance [33]: 11 mL/min/kg
- inhibition in vivo at 25 mg/kg (A2780 [34]): 86%
- inhibition in vivo at 10 mg/kg (A2780 [35]): 94%
- bioavailability [14]: 64%
- Activity (Mus musculus [36]): 10%
- hepatocyte CLint [37]: 11.8 µL/min/1e6 cells
- solubility thermodynamic [38]: 5300 µg/mL (≈ 11.5 mM)
- AUC (Rattus norvegicus): 41 µM·h
- IC50 (Cytochrome P450 2D6): 11500 nM
- Activity (Mus musculus [39]): 10%
- AUC(0-t) at 24 h [40]: 33 µM·h
- hepatocyte CLint [41]: 5.1 µL/min/1e6 cells
- fraction unbound [20]: 0.012
- bioavailability [42]: 8%
- clearance [22]: 7.4 mL/min/kg
- bioavailability [43]: 40%

— ChEMBL document CHEMBL4219148, “Discovery of a highly potent orally bioavailable imidazo-[1, 2-a]pyrazine Aurora inhibitor” (Bioorg Med Chem Lett, 2018)
